Values quoted from earlier work as cited in US20260191865A1, “CANCER THERAPY WITH CAPIVASERTIB AND FULVESTRANT” (AstraZeneca AB, priority 2022, published 2026).
Where two headings read alike, the source gives them in different places.

Test system: ER-positive, HER2-negative advanced breast cancer

## NC1(C(=O)N[C@@H](CCO)c2ccc(Cl)cc2)CCN(c2ncnc3[nH]ccc23)CC1 [capivasertib, (S)-4-amino-N-(1-(4-chlorophenyl)-3-hydroxypropyl)-1-(7H-pyrrolo[2,3-d]pyrimidin-4-yl)piperidine-4-carboxamide]
NGS-identified pathway non-altered subgroup
  PFS and overall survival benefit: no such benefit
Capivasertib added to fulvestrant, postmenopausal women, AI-resistant, no previous CDK4/6 inhibitor
  progression-free survival (PFS): significant improvement
Expanded (NGS) PI3K/AKT/PTEN pathway-altered subgroup, updated analysis
  PFS and overall survival benefit: significant PFS and overall survival benefit
Original pathway-altered and original pathway non-altered subgroups, capivasertib added to fulvestrant
  benefit by original pathway status (secondary endpoint subgroup analysis): conferred benefit
